Literature values in paper PMC3026871 (Cancer chemotherapy and pharmacology, 2010).

Molecular target: Aurora A kinase in skin basal epithelial cells (Homo sapiens, UniProt O14965)
Details: subsequent studies, similar times, identical assays; cited from earlier work

Chain of Aurora A kinase in skin basal epithelial cells (O14965 whole entry): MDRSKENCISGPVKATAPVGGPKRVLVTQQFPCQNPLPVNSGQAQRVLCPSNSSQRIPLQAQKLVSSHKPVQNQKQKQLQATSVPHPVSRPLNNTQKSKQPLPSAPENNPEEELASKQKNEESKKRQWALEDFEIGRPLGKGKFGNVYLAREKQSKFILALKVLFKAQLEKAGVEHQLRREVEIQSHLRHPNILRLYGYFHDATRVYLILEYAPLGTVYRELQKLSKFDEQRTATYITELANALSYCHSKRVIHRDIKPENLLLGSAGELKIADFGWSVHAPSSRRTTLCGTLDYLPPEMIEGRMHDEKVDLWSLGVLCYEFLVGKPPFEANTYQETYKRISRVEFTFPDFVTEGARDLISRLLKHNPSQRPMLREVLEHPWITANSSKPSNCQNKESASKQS

Structure (SMILES): COc1cc(Nc2ncc3c(n2)-c2ccc(Cl)cc2C(c2c(F)cccc2OC)=NC3)ccc1C(=O)O [MLN8237]
- pharmacodynamic activity in skin biopsies: dose-dependent pharmacodynamic activity in skin biopsies
